US12697352B2, “Instructions for composition and sensitivity” (Azura Ophthalmics Ltd., priority 2020, dated 2026)
Read-outs that look alike come from different tables or passages of the source.

Experiments:
human subject = system: human subject
Description: In most instances, the treatment is applied on a biweekly basis, however some patients move to daily application based on prespecified protocol criteria. Because the ointment-based composition is known to mix with tear fluid and cause blurry vision, individuals in this study are advised to apply the treatment prior to bed so as to avoid risks associated with reduced vision acuity. […] The in-office applications are conducted at specific, pre-determined time points. In these instances, the treatment is not applied before bed but rather is performed during daylight hours.

seborrheic blepharitis = settings: cited from earlier work
[1] = in vivo; cited from earlier work
patients [2] = system: patients
From the text: In a clinical study three different concentrations were used; 0.1 wt. %, (10 subjects) 0.5 wt. % (12 subjects) and 1 wt. % (26 subjects).

rabbits = settings: dose about 4 mg SeS2, concentration up to 2.5 wt. %, ointment applied over the eyelid margin
[3] = system: meibomian gland disorder (MGD) patients; settings: twice a week, 3 month time point
Description: The drug was applied twice a week and final evaluation was done at the 3 month time point in which the primary outcome of Meibomian Gland Score (MGS) was assessed.

patients [4] = settings: in vivo
Description: In a first study patients were instructed to dose in both the evening, between visits, and in the daytime during regular scheduled clinic visits as part of the study protocol. Study patients received a 2-week run-in on a placebo which was administered twice weekly for a period of two weeks.
Adverse events comprise a feeling of grittiness, foreign body feeling, stinging, blurry vision, redness, tired eyes, water eyes, irritation, lid abnormalities, burning, corneal abrasion, photophobia, staining, or dry eye disorder (DED).

selenium disulfide [SeS2]
health outcomes by OSDI, VAS and SPEED (human subject; at least one patient, 1 wt. %, one month of treatment): improved health outcomes
keratitis (human subject; in vivo): Keratitis is not observed
patients noting symptoms of keratitis (human subject; in vivo): four
efficacy in treating seborrheic blepharitis (seborrheic blepharitis; SeS2 0.5%, conclusion of most investigators): effective
adverse events following topical ocular use (seborrheic blepharitis; in vivo): superficial punctate keratitis and conjunctivitis
safe concentration of ophthalmic preparation for use in humans (seborrheic blepharitis; in vivo): 0.5%
adverse effect of shampooing [1]: diffuse hair loss
contact dermatitis or photo-contact dermatitis in tinea versicolor treatment [1]: None of the investigators encountered a single case
skin irritant effect [1]: can produce contact dermatitis
skin reaction after shampoo application [1]: circumscribed eczematous plaques on the light-exposed areas
time to resolution of hair loss after discontinuance [1]: 1-2 weeks
development of keratitis (patients [2]; human, in vivo): no development of keratitis
occurrence of keratitis with bedtime applications (patients [2]; human, in vivo): without a single occurrence of keratitis
subjects who developed keratitis or keratitis related symptoms (patients [2]; human, in vivo): four
total OSDI, VAS and SPEED (patients [2]; one patient, 1 wt. %, first month, twice weekly at home before bedtime): significant improvement
tolerability (rabbits): well tolerated
average change from baseline in Meibomian Gland Score (MGS) ([3]; 9 patients applying with finger): 10 (+/−8.2)
average change from baseline in Meibomian Gland Score (MGS) ([3]; 13 patients using the applicator (swab)): 2.3 (+/−4.4)
reduction in the incidence of ocular adverse events (patients [4]): 75%
reduction of rate of ocular adverse events (ocular AE) (patients [4]): at least 50%
